# Literature values as cited in patent publication US20240374543A1, “PHARMACEUTICAL COMPOSITIONS” (priority 2021, published 2024).
# Conditions: determined by the FDA
substance,measurement,value
N-Nitrosodimethylamine [NDMA],acceptable daily intake limit of NDMA,96 nanogram per day
